Source: US20150218172A1, “Pyrrolo[2,3-D]Pyrimidine Tropomyosin-Related Kinase Inhibitors” (PFIZER LIMITED, priority 2012, published 2015)
Where two headings read alike, the source gives them in different places.

Molecular target: T1, TrkA (Homo sapiens, UniProt P04629)
T1 construct: aa 441-796; His; purchased Invitrogen PV3144
Assay: Isolated TRK enzyme assay (HTRF KinEASE-TK kit), PV3144 TrkA enzyme assay
Assay type: biochemical
In short: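 HTRF KinEASE tyrosine-phosphorylation readout (665/620 nm ratio) on a 1 uM biotinylated substrate after reaction with preactivated His-tagged TrkA cytoplasmic domain plus ATP and MgCl2/DTT buffer. Compound preincubated 20 min with enzyme; IC50 from log-concentration sigmoid curve, averaged where repeated.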

[1] = PV3144 TrkA enzyme assay, recombinant His-tagged cytoplasmic domain aa 441-796, 4 nM enzyme, 40 uM ATP, arithmetic mean where more than one reading, read-out: Trka enzyme (IC50)

T1 sequence (P04629 441-796): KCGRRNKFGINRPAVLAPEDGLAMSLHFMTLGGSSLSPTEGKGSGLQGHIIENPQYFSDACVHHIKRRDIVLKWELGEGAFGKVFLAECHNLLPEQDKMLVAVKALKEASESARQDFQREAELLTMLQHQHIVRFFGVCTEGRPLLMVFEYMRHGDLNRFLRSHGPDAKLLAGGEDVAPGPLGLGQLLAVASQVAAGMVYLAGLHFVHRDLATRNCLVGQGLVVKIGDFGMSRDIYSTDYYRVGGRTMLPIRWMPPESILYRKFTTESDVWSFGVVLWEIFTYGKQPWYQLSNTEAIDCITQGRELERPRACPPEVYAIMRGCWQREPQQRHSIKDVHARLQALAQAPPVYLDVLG

| Structure (SMILES) | IC50 [1] [nM] | IC50 [nM] |
| --- | --- | --- |
| O=C(Cc1ccc(Cl)cc1Cl)Nc1ccnc(C(=O)c2cn(C(CO)CO)c3ncncc23)c1 [Example 95, 2-(2,4-dichlorophenyl)-N-(2-{[7-(1,3-dihydroxypropan-2-yl)-7H-pyrrolo[2,3-d]pyrimidin-5-yl]carbonyl}pyridin-4-yl)acetamide] | 146 | – |
| CC(C)n1cc(C(=O)c2cc(NC(=O)Cn3cc(C4CC4)nn3)ccn2)c2cncnc21 [Example 82, 2-(4-cyclopropyl-1H-1,2,3-triazol-1-yl)-N-(2-{[7-(propan-2-yl)-7H-pyrrolo[2,3-d]pyrimidin-5-yl]carbonyl}pyridin-4-yl)acetamide] | 76.1 | – |
| Cc1cc(C(F)(F)F)nn1CC(=O)Nc1cc(C(=O)c2cn(C(C)C)c3nc(N)ncc23)ccn1 [Example 46, N-(4-{[2-amino-7-(propan-2-yl)-7H-pyrrolo[2,3-d]pyrimidin-5-yl]carbonyl}pyridin-2-yl)-2-[5-methyl-3-(trifluoromethyl)-1H-pyrazol-1-yl]acetamide] | 4.69 | – |
| CC(C)n1cc(C(=O)c2cc(NC(=O)Cn3ccc(C(F)(F)F)n3)ccn2)c2cnc(N)nc21 [Example 85, N-(2-{[2-amino-7-(propan-2-yl)-7H-pyrrolo[2,3-d]pyrimidin-5-yl]carbonyl}pyridin-4-yl)-2-[3-(trifluoromethyl)-1H-pyrazol-1-yl]acetamide] | 54.1 | – |
| CC(C)n1cc(C(=O)c2ccnc(NC(=O)Cc3ccc(OC4CC4)cc3)c2)c2cncnc21 [Example 72, 2-[4-(cyclopropyloxy)phenyl]-N-(4-{[7-(propan-2-yl)-7H-pyrrolo[2,3-d]pyrimidin-5-yl]carbonyl}pyridin-2-yl)acetamide] | 117 | – |
| CC1(n2cc(C(=O)c3cc(NC(=O)Cc4ccc(F)cn4)ccn3)c3cncnc32)COC1 [Example 172, 2-(5-fluoropyridin-2-yl)-N-(2-{[7-(3-methyloxetan-3-yl)-7H-pyrrolo[2,3-d]pyrimidin-5-yl]carbonyl}pyridin-4-yl)acetamide] | 1080 | – |
| CC1(n2cc(C(=O)c3cc(NC(=O)Cc4cccc(C(F)(F)F)c4)ccn3)c3cncnc32)COC1 [Example 166, N-(2-{[7-(3-methyloxetan-3-yl)-7H-pyrrolo[2,3-d]pyrimidin-5-yl]carbonyl}pyridin-4-yl)-2-[3-(trifluoromethyl)phenyl]acetamide] | 52.9 | – |
| CC(C)n1cc(C(=O)c2cc(NC(=O)Cc3ccc(Cl)cc3)ccn2)c2cnc(N)nc21 [Example 87, N-(2-{[2-amino-7-(propan-2-yl)-7H-pyrrolo[2,3-d]pyrimidin-5-yl]carbonyl}pyridin-4-yl)-2-(4-chlorophenyl)acetamide] | 6.43 | – |
| CC(C)n1cc(C(=O)c2cc(NC(=O)Cn3cc(C(F)(F)F)nn3)ccn2)c2cncnc21 [Example 79, N-(2-{[7-(propan-2-yl)-7H-pyrrolo[2,3-d]pyrimidin-5-yl]carbonyl}pyridin-4-yl)-2-[4-(trifluoromethyl)-1H-1,2,3-triazol-1-yl]acetamide] | 131 | – |
| CC(C)n1cc(C(=O)c2cc(NC(=O)Cc3ccc(Cl)cc3)ncn2)c2cncnc21 [Example 65, 2-(4-chlorophenyl)-N-(6-{[7-(propan-2-yl)-7H-pyrrolo[2,3-d]pyrimidin-5-yl]carbonyl}pyrimidin-4-yl)acetamide] | 23.4 | – |
| CC(CO)(CO)n1cc(C(=O)c2cc(NC(=O)Cc3ccc(Cl)cc3)ccn2)c2cncnc21 [Example 102, 2-(4-chlorophenyl)-N-(2-{[7-(1,3-dihydroxy-2-methylpropan-2-yl)-7H-pyrrolo[2,3-d]pyrimidin-5-yl]carbonyl}pyridin-4-yl)acetamide] | 96.6 | – |
| Cc1cc(C(F)(F)F)nn1CC(=O)Nc1cc(C(=O)c2cn(C(C)C)c3ncncc23)ccn1 [Example 147, 2-[5-methyl-3-(trifluoromethyl)-1H-pyrazol-1-yl]-N-(4-{[7-(propan-2-yl)-7H-pyrrolo[2,3-d]pyrimidin-5-yl]carbonyl}pyridin-2-yl)acetamide] | 16.2 | – |
| CC(C)(CO)n1cc(C(=O)c2cc(NC(=O)Cn3ccc(C(F)(F)F)n3)ccn2)c2cncnc21 [Example 59, N-(2-{[7-(1-hydroxy-2-methylpropan-2-yl)-7H-pyrrolo[2,3-d]pyrimidin-5-yl]carbonyl}pyridin-4-yl)-2-[3-(trifluoromethyl)-1H-pyrazol-1-yl]acetamide] | 12.3 | – |
| Cc1cc(C(F)(F)F)nn1CC(=O)Nc1ccnc(C(=O)c2cn(C(C)C)c3ncncc23)c1 [Example 69, 2-[5-methyl-3-(trifluoromethyl)-1H-pyrazol-1-yl]-N-(2-{[7-(propan-2-yl)-7H-pyrrolo[2,3-d]pyrimidin-5-yl]carbonyl}pyridin-4-yl)acetamide] | 5.54 | – |
| Cc1cn(CC(=O)Nc2cc(C(=O)c3cn(CCO)c4ncncc34)ccn2)nn1 [Example 133, N-(4-{[7-(2-hydroxyethyl)-7H-pyrrolo[2,3-d]pyrimidin-5-yl]carbonyl}pyridin-2-yl)-2-(4-methyl-1H-1,2,3-triazol-1-yl)acetamide] | 9380 | – |
| CC(C)(CO)n1cc(C(=O)c2cc(NC(=O)Cn3ccc(C4CC4)n3)ccn2)c2cncnc21 [Example 61, 2-(3-cyclopropyl-1H-pyrazol-1-yl)-N-(2-{[7-(1-hydroxy-2-methylpropan-2-yl)-7H-pyrrolo[2,3-d]pyrimidin-5-yl]carbonyl}pyridin-4-yl)acetamide] | 25.4 | – |
| CC(C)n1cc(C(=O)c2cc(NC(=O)Cn3cc(C4CC4)nn3)ccn2)c2cnc(N)nc21 [Example 91, N-(2-{[2-amino-7-(propan-2-yl)-7H-pyrrolo[2,3-d]pyrimidin-5-yl]carbonyl}pyridin-4-yl)-2-(4-cyclopropyl-1H-1,2,3-triazol-1-yl)acetamide] | 44.5 | – |
| Cc1cc(C(F)(F)F)nn1CC(=O)Nc1ccnc(C(=O)c2cn([C@H](C)CO)c3ncncc23)c1 [Example 21, N-[2-({7-[(2R)-1-hydroxypropan-2-yl]-7H-pyrrolo[2,3-d]pyrimidin-5-yl}carbonyl)pyridin-4-yl]-2-[5-methyl-3-(trifluoromethyl)-1H-pyrazol-1-yl]acetamide] | 95.8 | – |
| CC(C)(C)n1cc(C(=O)c2cc(NC(=O)Cc3ccc(F)cn3)ccn2)c2cncnc21 [Example 37, N-{2-[(7-tert-butyl-7H-pyrrolo[2,3-d]pyrimidin-5-yl)carbonyl]pyridin-4-yl}-2-(5-fluoropyridin-2-yl)acetamide] | 21 | – |
| N#Cc1ccc(CC(=O)Nc2cc(C(=O)c3cn(CCO)c4ncncc34)ccn2)cc1 [Example 143, 2-(4-cyanophenyl)-N-(4-{[7-(2-hydroxyethyl)-7H-pyrrolo[2,3-d]pyrimidin-5-yl]carbonyl}pyridin-2-yl)acetamide] | 268 | – |
| CC(C)(C)n1cc(C(=O)c2cc(NC(=O)Cc3cccc(S(C)(=O)=O)c3)ccn2)c2cncnc21 [Example 38, N-{2-[(7-tert-butyl-7H-pyrrolo[2,3-d]pyrimidin-5-yl)carbonyl]pyridin-4-yl}-2-[3-(methylsulfonyl)phenyl]acetamide] | 9.61 | – |
| O=C(Cc1ccc(Cl)cc1)Nc1cc(C(=O)c2cn(C(CO)CO)c3ncncc23)ccn1 [Example 113, 2-(4-Chlorophenyl)-N-[4-({7-[2-hydroxy-1-(hydroxymethyl)ethyl]-7H-pyrrolo[2,3-d]pyrimidin-5-yl}carbonyl)pyridin-2-yl]acetamide] | 58.9 | – |
| CC(C)n1cc(C(=O)c2ccnc(NC(=O)Cn3cccn3)c2)c2cncnc21 [Example 158, N-(4-{[7-(propan-2-yl)-7H-pyrrolo[2,3-d]pyrimidin-5-yl]carbonyl}pyridin-2-yl)-2-(1H-pyrazol-1-yl)acetamide] | 1350 | – |
| C[C@H](CO)n1cc(C(=O)c2cc(NC(=O)Cc3ccc(Cl)cn3)ccn2)c2cncnc21 [Example 25, 2-(5-chloropyridin-2-yl)-N-[2-({7-[(2R)-1-hydroxypropan-2-yl]-7H-pyrrolo[2,3-d]pyrimidin-5-yl}carbonyl)pyridin-4-yl]acetamide] | 363 | – |
| CC1(n2cc(C(=O)c3cc(NC(=O)Cn4cc(C(F)(F)F)nn4)ccn3)c3cncnc32)COC1 [Example 171, N-(2-{[7-(3-methyloxetan-3-yl)-7H-pyrrolo[2,3-d]pyrimidin-5-yl]carbonyl}pyridin-4-yl)-2-[4-(trifluoromethyl)-1H-1,2,3-triazol-1-yl]acetamide] | 255 | – |
| COc1cc(C(=O)c2cn(C(C)C)c3ncncc23)cc(NC(=O)Cc2ccc(C#N)cc2)n1 [Example 165, 2-(4-cyanophenyl)-N-(6-methoxy-4-{[7-(propan-2-yl)-7H-pyrrolo[2,3-d]pyrimidin-5-yl]carbonyl}pyridin-2-yl)acetamide] | 1040 | – |
| O=C(Cc1ccc(Cl)cc1)Nc1cc(C(=O)c2cn(CC3(CO)COC3)c3ncncc23)ccn1 [Example 115, 2-(4-Chlorophenyl)-N-{4-[(7-{[3-(hydroxymethyl)oxetan-3-yl]methyl}-7H-pyrrolo[2,3-d]pyrimidin-5-yl)carbonyl}pyridin-2-yl]acetamide] | 126 | – |
| C[C@@H](CO)n1cc(C(=O)c2cc(NC(=O)Cc3ccc(Cl)cn3)ccn2)c2cncnc21 [Example 13, 2-(5-chloropyridin-2-yl)-N-[2-({7-[(2S)-1-hydroxypropan-2-yl]-7H-pyrrolo[2,3-d]pyrimidin-5-yl}carbonyl)pyridin-4-yl]acetamide] | 230 | – |
| CC(C)(CO)n1cc(C(=O)c2cc(NC(=O)Cn3cc(C(F)(F)F)nn3)ccn2)c2cnc(N)nc21 [Example 53, N-(2-{[2-amino-7-(1-hydroxy-2-methylpropan-2-yl)-7H-pyrrolo[2,3-d]pyrimidin-5-yl]carbonyl}pyridin-4-yl)-2-[4-(trifluoromethyl)-1H-1,2,3-triazol-1-yl]acetamide] | 216 | – |
| Cc1cc(C)n(CC(=O)Nc2cc(C(=O)c3cn(CC4CC4)c4ncncc34)ccn2)n1 [Example 176, N-(4-{[7-(Cyclopropylmethyl)-7H-pyrrolo[2,3-d]pyrimidin-5-yl]carbonyl}pyridin-2-yl)-2-(3,5-dimethyl-1H-pyrazol-1-yl)acetamide] | – | 107 |
